Experimental data: PMC13266999, “Designing Antibiotics with Inherent Resistance to Efflux as a Strategy to Revive Discovery against Multidrug-Resistant Pathogens” (Journal of Medicinal Chemistry, 2026)
Values after ≈ are worked out from the molar mass of the structure shown. Like-named read-outs stand apart in the source and are kept apart here.

What was measured:
Acinetobacter baumannii = experiment: MIC (microbroth dilution); assay type: cell-based; conditions: read-out: MIC
In short: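 Microbroth dilution in tryptic soy broth; Streptococcus spp. in cation-adjusted Mueller Hinton broth with 2.5% lysed horse blood, inocula from overnight stationary-phase cultures. MIC is lowest concentration without visible growth, OD600 read. Parallel MICs run with 30 μg/mL polymyxin B nonapeptide (final) as outer-membrane permeabilizer.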

K. pneumoniae = experiment: MIC (microbroth dilution); assay type: cell-based, Klebsiella pneumoniae; conditions: Klebsiella pneumoniae, read-out: MIC
Protocol: All bacteria were maintained on tryptic soy agar (TSA), except Streptococcus spp., which were maintained on Columbia agar plates containing 5% horse blood. […] Bacteria were grown to stationary phase in liquid culture overnight, with shaking at 200 rpm, before being back diluted to the relevant starting concentration for each assay below. MICs were measured by the microbroth dilution method. […] Absorbance at OD600 was read on a CLARIOstar spectrophotometer (BMG Labtech) and the MIC was defined as the minimum concentration of compound where no visible growth was detected. […] MICs were also performed in the presence of the outer membrane permeator, polymyxin b nonapeptide (PMBN) following the same MIC method but with the following variation. The 2-fold dilution series of compound was prepared as above, then 50 μL of PMBN at a final concentration of 30 μg/mL was added to relevant wells, while 50 μL/well of blank media was added to the remaining wells. Bacteria were then added at 50 μL/well for a starting concentration as above. […] The MICs were read and defined as above. All animal procedures were performed by the contract research organization Pharmacology Discovery Services Taiwan in accordance with the Guide for the Care and Use of Laboratory Animals. The procedures were approved by the Institutional Ethics Committee of Pharmacology Discovery Services Taiwan, Ltd. (approval no. AB127662), in compliance with animal welfare legislation in Taiwan.

E. faecium = experiment: Mutation frequency and agar MIC; assay type: cell-based; conditions: NCTC 12204
Protocol: Mutation frequencies were performed on solid media at supra-inhibitory concentrations. First, the agar MIC was performed to account for any issues in solubility of compounds in solid media. Agar plates were prepared with 2-fold dilutions of compound.
For the mutation frequency assay, bacteria from an overnight culture were grown to mid exponential phase in liquid broth, then 100 μL was spread onto an agar plate containing compound at concentrations above the agar MIC. A Miles-Misra was also conducted on an antibiotic-free agar plate to determine the CFU/mL of the starting population. […] The mutation frequency was calculated by dividing the number of colonies on supra inhibitory con-centration plates by the starting population.

5-HT transporter (h) = target: T1, 5-HT transporter (h) (Homo sapiens, UniProt P31645); experiment: SafetyScreen44; conditions: antagonist radioligand, specific binding, 1.0E-05 M
T1 construct: purchased Eurofins (SafetyScreen44)
T1 sequence (P31645 whole entry): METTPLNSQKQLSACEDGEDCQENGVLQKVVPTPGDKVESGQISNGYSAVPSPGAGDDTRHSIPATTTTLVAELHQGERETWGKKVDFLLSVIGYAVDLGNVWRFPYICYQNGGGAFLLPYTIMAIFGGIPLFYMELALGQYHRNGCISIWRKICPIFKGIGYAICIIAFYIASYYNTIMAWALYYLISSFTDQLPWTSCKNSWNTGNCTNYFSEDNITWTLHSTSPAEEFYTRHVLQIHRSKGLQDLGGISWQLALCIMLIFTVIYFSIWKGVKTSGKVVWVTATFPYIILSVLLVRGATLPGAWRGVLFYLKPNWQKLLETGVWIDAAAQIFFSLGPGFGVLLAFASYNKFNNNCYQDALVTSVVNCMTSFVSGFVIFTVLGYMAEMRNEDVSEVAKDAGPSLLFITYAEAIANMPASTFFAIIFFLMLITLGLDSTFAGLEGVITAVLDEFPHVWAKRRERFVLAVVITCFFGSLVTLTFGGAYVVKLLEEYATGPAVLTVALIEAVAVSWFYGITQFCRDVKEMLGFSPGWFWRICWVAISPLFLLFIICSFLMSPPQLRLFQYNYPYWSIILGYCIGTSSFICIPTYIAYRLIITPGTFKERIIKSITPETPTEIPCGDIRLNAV
Protocol: (§1) Off-target pharmacology was evaluated using the Eurofins SafetyScreen44 in vitro panel. […] Binding assays were performed using radioligand displacement, and enzyme or uptake assays measured inhibition of control activity using validated detection methods (scintillation counting, fluorimetry or photometry). Responses were expressed as percent inhibition of control binding or activity. Based on Eurofins interpretation guidelines, effects ≥50% were considered significant, effects between 25% and 50% weak to moderate, and effects <25% were not considered biologically relevant.

5-HT1A (h) = target: T2, 5-HT1A (h) (Homo sapiens, UniProt P08908); experiment: SafetyScreen44; conditions: agonist radioligand, specific binding, 1.0E-05 M
T2 construct: purchased Eurofins (SafetyScreen44)
T2 sequence (P08908 whole entry): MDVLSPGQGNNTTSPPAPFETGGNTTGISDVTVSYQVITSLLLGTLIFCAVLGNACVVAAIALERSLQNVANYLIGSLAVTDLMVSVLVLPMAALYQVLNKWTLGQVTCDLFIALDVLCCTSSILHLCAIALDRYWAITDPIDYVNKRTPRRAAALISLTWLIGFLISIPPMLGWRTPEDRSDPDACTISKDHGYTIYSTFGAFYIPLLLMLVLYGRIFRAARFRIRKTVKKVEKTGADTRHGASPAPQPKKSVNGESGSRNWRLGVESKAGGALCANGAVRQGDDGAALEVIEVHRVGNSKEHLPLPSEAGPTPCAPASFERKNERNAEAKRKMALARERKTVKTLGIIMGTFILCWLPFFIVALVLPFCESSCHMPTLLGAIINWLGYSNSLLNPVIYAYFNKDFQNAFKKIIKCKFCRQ
Protocol: as §1

D1 (h) = target: T3, D1 (h) (Homo sapiens, UniProt P21728); experiment: SafetyScreen44; conditions: antagonist radioligand, specific binding, 1.0E-05 M
T3 construct: purchased Eurofins (SafetyScreen44)
T3 sequence (P21728 whole entry): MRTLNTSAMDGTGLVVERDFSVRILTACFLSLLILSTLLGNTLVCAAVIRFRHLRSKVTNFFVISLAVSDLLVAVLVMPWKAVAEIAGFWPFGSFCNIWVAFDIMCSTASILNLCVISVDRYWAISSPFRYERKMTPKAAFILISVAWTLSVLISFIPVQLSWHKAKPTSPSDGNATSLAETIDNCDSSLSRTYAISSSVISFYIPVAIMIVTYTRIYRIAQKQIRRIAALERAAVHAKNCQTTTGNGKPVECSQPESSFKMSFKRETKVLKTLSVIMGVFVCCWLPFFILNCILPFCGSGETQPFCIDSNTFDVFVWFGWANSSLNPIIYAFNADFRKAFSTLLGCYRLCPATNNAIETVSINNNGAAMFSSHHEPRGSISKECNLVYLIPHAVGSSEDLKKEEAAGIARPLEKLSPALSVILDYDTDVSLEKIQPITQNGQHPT
Protocol: as §1

MAO-A = target: T4, MAO-A (Rattus norvegicus, UniProt P21396); experiment: SafetyScreen44; conditions: antagonist radioligand, specific binding, 1.0E-05 M
T4 construct: purchased Eurofins (SafetyScreen44)
T4 sequence (P21396 whole entry): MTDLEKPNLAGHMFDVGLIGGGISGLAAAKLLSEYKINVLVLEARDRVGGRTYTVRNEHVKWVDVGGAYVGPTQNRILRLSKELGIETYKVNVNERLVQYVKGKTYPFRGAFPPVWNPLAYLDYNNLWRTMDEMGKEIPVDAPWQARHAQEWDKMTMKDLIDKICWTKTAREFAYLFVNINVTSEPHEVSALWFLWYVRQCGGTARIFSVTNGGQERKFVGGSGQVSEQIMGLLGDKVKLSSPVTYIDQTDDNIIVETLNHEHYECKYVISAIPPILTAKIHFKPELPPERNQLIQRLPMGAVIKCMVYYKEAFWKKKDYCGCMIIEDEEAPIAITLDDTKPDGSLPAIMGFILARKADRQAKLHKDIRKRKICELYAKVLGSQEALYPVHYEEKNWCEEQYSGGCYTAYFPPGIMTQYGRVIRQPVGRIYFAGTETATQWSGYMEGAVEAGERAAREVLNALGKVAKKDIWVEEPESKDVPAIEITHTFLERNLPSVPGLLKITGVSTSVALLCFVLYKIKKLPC
Protocol: as §1

[1] = target: T5, Potassium Channel hERG (human) (Homo sapiens, UniProt Q12809); experiment: SafetyScreen44; conditions: [3H] Dofetilide, specific binding, 1.0E-05 M
T5 construct: purchased Eurofins (SafetyScreen44)
T5 sequence (Q12809 whole entry): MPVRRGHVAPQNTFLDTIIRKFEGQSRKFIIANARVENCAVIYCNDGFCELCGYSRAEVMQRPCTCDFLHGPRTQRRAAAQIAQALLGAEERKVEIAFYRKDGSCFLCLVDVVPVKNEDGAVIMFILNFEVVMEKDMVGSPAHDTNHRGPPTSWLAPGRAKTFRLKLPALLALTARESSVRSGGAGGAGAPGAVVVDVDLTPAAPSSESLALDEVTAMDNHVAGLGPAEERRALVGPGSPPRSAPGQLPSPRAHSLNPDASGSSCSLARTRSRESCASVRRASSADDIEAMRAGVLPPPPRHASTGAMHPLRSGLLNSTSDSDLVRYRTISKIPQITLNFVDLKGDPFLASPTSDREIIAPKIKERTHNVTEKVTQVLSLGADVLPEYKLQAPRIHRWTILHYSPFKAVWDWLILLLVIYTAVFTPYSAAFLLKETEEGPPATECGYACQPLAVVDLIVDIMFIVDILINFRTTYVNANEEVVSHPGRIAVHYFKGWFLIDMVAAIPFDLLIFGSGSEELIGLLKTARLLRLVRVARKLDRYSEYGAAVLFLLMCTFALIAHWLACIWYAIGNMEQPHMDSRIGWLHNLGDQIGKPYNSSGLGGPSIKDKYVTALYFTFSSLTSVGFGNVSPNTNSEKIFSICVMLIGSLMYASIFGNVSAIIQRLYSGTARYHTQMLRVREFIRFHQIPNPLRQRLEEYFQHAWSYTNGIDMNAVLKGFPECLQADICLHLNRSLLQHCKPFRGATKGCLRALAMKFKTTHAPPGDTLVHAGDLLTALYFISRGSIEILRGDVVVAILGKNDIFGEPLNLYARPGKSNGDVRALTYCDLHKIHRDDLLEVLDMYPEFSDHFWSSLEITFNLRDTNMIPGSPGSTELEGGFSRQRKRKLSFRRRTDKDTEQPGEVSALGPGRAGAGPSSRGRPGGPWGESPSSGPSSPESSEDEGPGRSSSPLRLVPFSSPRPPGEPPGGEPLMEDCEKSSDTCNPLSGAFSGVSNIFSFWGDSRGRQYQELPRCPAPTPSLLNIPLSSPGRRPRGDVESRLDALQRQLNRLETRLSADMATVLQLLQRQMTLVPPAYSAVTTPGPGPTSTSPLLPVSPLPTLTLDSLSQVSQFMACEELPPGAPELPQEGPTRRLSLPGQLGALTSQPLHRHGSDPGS
Protocol: as §1

V1a (h) = target: T6, V1a (h) (Homo sapiens, UniProt P37288); experiment: SafetyScreen44; conditions: agonist radioligand, specific binding, 1.0E-05 M
T6 construct: purchased Eurofins (SafetyScreen44)
T6 sequence (P37288 whole entry): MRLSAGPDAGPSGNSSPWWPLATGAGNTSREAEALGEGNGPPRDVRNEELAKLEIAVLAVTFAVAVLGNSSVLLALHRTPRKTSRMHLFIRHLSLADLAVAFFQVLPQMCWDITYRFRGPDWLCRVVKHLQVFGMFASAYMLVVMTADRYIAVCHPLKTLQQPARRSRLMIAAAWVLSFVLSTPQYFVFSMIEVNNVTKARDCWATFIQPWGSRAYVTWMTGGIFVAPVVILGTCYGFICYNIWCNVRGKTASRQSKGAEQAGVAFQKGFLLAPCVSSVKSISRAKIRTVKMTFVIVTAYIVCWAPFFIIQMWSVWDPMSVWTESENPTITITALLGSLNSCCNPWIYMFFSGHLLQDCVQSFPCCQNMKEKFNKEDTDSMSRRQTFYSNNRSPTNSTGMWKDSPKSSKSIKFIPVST
Protocol: as §1

beta 1 (h) = target: T7, beta 1 (h) (Homo sapiens, UniProt P08588); experiment: SafetyScreen44; conditions: agonist radioligand, specific binding, 1.0E-05 M
T7 construct: purchased Eurofins (SafetyScreen44)
T7 sequence (P08588 whole entry): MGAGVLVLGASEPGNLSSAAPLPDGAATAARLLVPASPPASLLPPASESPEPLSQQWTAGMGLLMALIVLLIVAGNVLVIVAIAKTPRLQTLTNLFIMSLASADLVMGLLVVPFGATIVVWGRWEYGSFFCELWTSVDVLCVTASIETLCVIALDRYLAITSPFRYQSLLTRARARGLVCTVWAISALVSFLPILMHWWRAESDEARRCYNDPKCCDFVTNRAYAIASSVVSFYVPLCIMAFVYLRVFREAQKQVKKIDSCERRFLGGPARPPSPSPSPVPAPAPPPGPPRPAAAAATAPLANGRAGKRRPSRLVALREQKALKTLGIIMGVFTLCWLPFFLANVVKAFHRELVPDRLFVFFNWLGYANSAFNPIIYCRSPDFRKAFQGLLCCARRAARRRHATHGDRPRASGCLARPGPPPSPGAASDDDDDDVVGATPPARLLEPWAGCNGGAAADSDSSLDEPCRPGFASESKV
Protocol: as §1

delta (DOP) (h) = target: T8, delta (DOP) (h) (Homo sapiens, UniProt P41143); experiment: SafetyScreen44; conditions: agonist radioligand, specific binding, 1.0E-05 M
T8 construct: purchased Eurofins (SafetyScreen44)
T8 sequence (P41143 whole entry): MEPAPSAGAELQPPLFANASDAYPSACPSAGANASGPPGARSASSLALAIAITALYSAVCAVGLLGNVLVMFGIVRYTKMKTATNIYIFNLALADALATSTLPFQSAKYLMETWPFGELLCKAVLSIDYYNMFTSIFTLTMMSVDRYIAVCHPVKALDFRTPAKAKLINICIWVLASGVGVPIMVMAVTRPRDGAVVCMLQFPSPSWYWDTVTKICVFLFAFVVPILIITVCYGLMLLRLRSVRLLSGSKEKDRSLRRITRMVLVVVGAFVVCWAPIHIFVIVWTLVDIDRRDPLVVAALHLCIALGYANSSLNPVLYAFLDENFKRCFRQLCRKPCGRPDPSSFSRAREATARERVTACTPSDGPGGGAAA
Protocol: as §1

MRSA ATCC 33591 = experiment: Neutropenic murine thigh infection model; conditions: oral 50 mg/kg TID at 2, 8, and 14 h postinfection; at 26 h

## Cc1cc(C)nc(N[C@@H]2CCN(c3c(F)cc4c(=O)c(C(=O)O)cn5c4c3OC[C@@H]5C)C2)n1 [Compound 50, (S)-10-((R)-3-((4,6-Dimethylpyrimidin-2-yl)amino)pyrrolidin-1-yl)-9-fluoro-3-methyl-7-oxo-2,3-dihydro-7H-[1,4]oxazino[2,3,4-ij]quinoline-6-carboxylic acid]
Acinetobacter baumannii; Acinetobacter baumannii, 86, oxa23
  MIC: 8 µg/mL (≈ 17.6 µM)
Acinetobacter baumannii; Acinetobacter baumannii, 96, oxa23
  MIC: 4 µg/mL (≈ 8.82 µM)
Acinetobacter baumannii; Acinetobacter baumannii, 113, oxa23
  MIC: 4 µg/mL (≈ 8.82 µM)
Acinetobacter baumannii; Acinetobacter baumannii, A118
  MIC: ≤ 0.06 µg/mL
Acinetobacter baumannii; Acinetobacter baumannii, A318
  MIC: 16 µg/mL (≈ 35.3 µM)
Acinetobacter baumannii; Acinetobacter baumannii, A319
  MIC: 4 µg/mL (≈ 8.82 µM)
Acinetobacter baumannii; Acinetobacter baumannii, A600 colR
  MIC: 4 µg/mL (≈ 8.82 µM)
Acinetobacter baumannii; Acinetobacter baumannii, A601 colS
  MIC: 0.125 µg/mL (≈ 0.276 µM)
Acinetobacter baumannii; Acinetobacter baumannii, ATCC17978, ATCC 17978
  MIC: 0.25 µg/mL (≈ 0.551 µM)
Acinetobacter baumannii; Acinetobacter baumannii, BAA1709, BAA-1709
  MIC: 0.125 µg/mL (≈ 0.276 µM)
Acinetobacter baumannii; Acinetobacter baumannii, BAA1710, BAA-1710 (AYE)
  MIC: 8 µg/mL (≈ 17.6 µM)
Acinetobacter baumannii; Acinetobacter baumannii, NCTC10303, NCTC 10303
  MIC: 0.125 µg/mL (≈ 0.276 µM)
Acinetobacter baumannii; Acinetobacter baumannii, NCTC13302, NCTC 13302, oxa24
  MIC: 4 µg/mL (≈ 8.82 µM)
Acinetobacter baumannii; Acinetobacter baumannii, NCTC13424, NCTC 13424, oxa23
  MIC: > 64 µg/mL
Acinetobacter baumannii; Acinetobacter baumannii, T strain
  MIC: 8 µg/mL (≈ 17.6 µM)
Acinetobacter baumannii; Acinetobacter baumannii, UKA1, oxa23
  MIC: 4 µg/mL (≈ 8.82 µM)
Acinetobacter baumannii; Acinetobacter baumannii, UKA2, Low resistance
  MIC: 8 µg/mL (≈ 17.6 µM)
Acinetobacter baumannii; Acinetobacter baumannii, UKA9
  MIC: 0.125 µg/mL (≈ 0.276 µM)
Acinetobacter baumannii; Acinetobacter baumannii, UKA12, oxa23
  MIC: 4 µg/mL (≈ 8.82 µM)
Acinetobacter baumannii; Acinetobacter baumannii, UKA13, oxa23
  MIC: 4 µg/mL (≈ 8.82 µM)
Acinetobacter baumannii; Acinetobacter baumannii, UKA15, oxa23
  MIC: 4 µg/mL (≈ 8.82 µM)
Acinetobacter baumannii; Acinetobacter baumannii, UKA19
  MIC: 0.5 µg/mL (≈ 1.1 µM)
Acinetobacter baumannii; Acinetobacter baumannii, W1
  MIC: 8 µg/mL (≈ 17.6 µM)
K. pneumoniae; M6
  MIC: 2 µg/mL (≈ 4.41 µM)
K. pneumoniae; NCTC13368, NCTC 13368
  MIC: 16 µg/mL (≈ 35.3 µM)
E. faecium
  Agar MIC: 2 µg/mL
5-HT transporter (h)
  inhibition at 10 µM: 2.23%
5-HT1A (h)
  inhibition at 10 µM: -2.72%
D1 (h)
  inhibition at 10 µM: -5.66%
MAO-A
  inhibition at 10 µM: 15%
[1]
  % Inhibition: -1.132%
V1a (h)
  inhibition at 10 µM: 9.53%
Beta 1 (h)
  inhibition at 10 µM: 12.5%
Delta (DOP) (h)
  inhibition at 10 µM: 1.77%
MRSA ATCC 33591
  bacterial counts in thigh: 4.6 log10 CFU/g
  reduction relative to the vehicle: 4.1 log10 CFU/g
